Data reported in ChEMBL document CHEMBL5131491, “N6-modification of 7-Deazapurine nucleoside analogues as Anti-Trypanosoma cruzi and anti-Leishmania agents: Structure-activity relationship exploration and In vivo evaluation” (Eur J Med Chem, 2022).

How the values were obtained:
[1] = Cytotoxicity against human MRC5 fibroblast cells assessed as reduction in cell viability measured after 3 days by fluorometry; assay type: toxicity, cell-based; conditions: time 3 day
[2] = test system: Trypanosoma cruzi; experiment: Antitrypanosomal activity against intracellular Trypanosoma cruzi Tulahuen amastigotes expressing CL2 beta-galactosidase in human MRC5 cells assessed as parasite growth inhibition using chlorophenol red beta-D-galactopyranoside as substrate treated for 7 days by spectrophotometry; assay type: functional, organism-based; conditions: MRC5, 168 h
[3] = test system: Leishmania infantum; experiment: Antileishmanial activity against intracellular Leishmania infantum MHOM/MA(BE)/67 amastigotes infected in Swiss mouse peritoneal macrophages assessed as parasite growth inhibition incubated for 5 days by giemsa staining based microscopic analysis; assay type: functional, organism-based; conditions: MHOM/MA(BE)/67, Macrophage, 120 h
[4] = Cytotoxicity against Swiss mouse peritoneal macrophages assessed as reduction in cell viability measured after 5 days by microscopic analysis; assay type: toxicity, cell-based, Macrophage; conditions: time 5 day
[5] = Selectivity index, ratio of CC50 for human MRC-5 cells to EC50 for antitrypanosomal activity against intracellular Trypanosoma cruzi Tulahuen amastigotes expressing CL2 beta-galactosidase in human MRC5 cells; assay type: toxicity, cell-based; conditions: read-out: Selectivity Index
[6] = Selectivity index, ratio of CC50 for Swiss mouse peritoneal macrophages to EC50 for antileishmanial activity against intracellular Leishmania infantum MHOM/MA(BE)/67 amastigotes infected in Swiss mouse peritoneal macrophages; assay type: toxicity, cell-based; conditions: read-out: Selectivity Index
[7] = test system: Trypanosoma cruzi; experiment: Antitrypanosomal activity against Trypanosoma cruzi Y strain infected in acute CD Swiss Webster mouse model assessed as reduction in parasitemia at 100 mg/kg, po qd for 5 consecutive days by light microscopy relative to control; assay type: functional; parameters: scale not given: the % may be the effect or the level left; conditions: time 5 day
[8] = Toxicity in acute CD Swiss Webster mouse model infected with Trypanosoma cruzi Y strain assessed as animal survival at 100 mg/kg, po qd for 5 consecutive days measured daily for upto 30 days post-treatment; assay type: organism-based; conditions: in vivo, 720 h, time < 30 day

Row | Structure (SMILES) | CC50 at 72 h [1] | EC50 [2] | EC50 [3] | CC50 at 120 h [4] | selectivity ratio [5] | selectivity ratio [6] | Activity [7] | Survival [8]
1 | CC(C)Nc1ncnc2c1ccn2[C@@H]1O[C@H](CO)[C@@H](O)[C@H]1O | > 64 µM | > 64 µM | > 64 µM | > 64 µM | – | – | – | –
2 | CCNc1ncnc2c1ccn2[C@@H]1O[C@H](CO)[C@@H](O)[C@H]1O | > 64 µM | 5.08 µM | 0.51 µM | > 64 µM | > 12.6 | > 125 | – | –
3 | OC[C@H]1O[C@@H](n2ccc3c(NCc4ccccc4)ncnc32)[C@H](O)[C@@H]1O | > 64 µM | 7.48 µM | 1.09 µM | 5 µM | > 8.56 | 4.59 | – | –
4 | OC[C@H]1O[C@@H](n2ccc3c(N4CCCCC4)ncnc32)[C@H](O)[C@@H]1O | > 64 µM | 7.74 µM | 1.11 µM | 2 µM | > 8.27 | 1.8 | – | –
5 | O=C(Cn1ccnc1[N+](=O)[O-])NCc1ccccc1 [BENZNIDAZOLE] | – | – | – | – | – | – | 100% | Non-Toxic
6 | OC[C@H]1O[C@@H](n2ccc3c(N4CCCC4)ncnc32)[C@H](O)[C@@H]1O | > 64 µM | > 64 µM | > 64 µM | 64 µM | – | – | – | –
7 | Nc1ccnc2c1ccn2[C@@H]1O[C@H](CO)[C@@H](O)[C@H]1O | 17.9 µM | 2.27 µM | 38.9 µM | > 64 µM | > 47.1 | > 1.65 | – | –
8 | Nc1ncc2ccn([C@@H]3O[C@H](CO)[C@@H](O)[C@H]3O)c2n1 | > 64 µM | 33.8 µM | > 64 µM | > 64 µM | > 1.89 | – | – | –
9 | CC1CCN(c2ncnc3c2ccn3[C@@H]2O[C@H](CO)[C@@H](O)[C@H]2O)CC1 | > 64 µM | 7.84 µM | 2.6 µM | 8 µM | > 8.15 | 3.08 | – | –
10 | Nc1ncnc2c1ccn2[C@@H]1O[C@H](CO)[C@@H](O)[C@H]1O [TUBERCIDIN] | 2.23 µM | 0.34 µM | 0.13 µM | 0.13 µM | 6.6 | 1 | – | –
11 | OC[C@H]1O[C@@H](n2ccc3c(Nc4ccccc4)ncnc32)[C@H](O)[C@@H]1O | > 64 µM | 7.89 µM | 1.37 µM | 2 µM | > 8.11 | 1.46 | – | –
12 | C=CCNc1ncnc2c1ccn2[C@@H]1O[C@H](CO)[C@@H](O)[C@H]1O | 8.9 µM | 2.58 µM | 6.01 µM | 8 µM | 3.45 | 1.33 | – | –
13 | CCN(CC)c1ncnc2c1ccn2[C@@H]1O[C@H](CO)[C@@H](O)[C@H]1O | > 64 µM | > 64 µM | > 64 µM | 64 µM | – | – | – | –
14 | OC[C@H]1O[C@@H](n2ccc3c(NC4CCCCC4)ncnc32)[C@H](O)[C@@H]1O | 44.6 µM | 7.82 µM | 19.3 µM | > 64 µM | 5.7 | > 3.32 | – | –
15 | CCCCNc1ncnc2c1ccn2[C@@H]1O[C@H](CO)[C@@H](O)[C@H]1O | > 64 µM | 4.13 µM | 3.84 µM | > 64 µM | > 15.5 | > 16.7 | – | –
16 | CCCNc1ncnc2c1ccn2[C@@H]1O[C@H](CO)[C@@H](O)[C@H]1O | > 64 µM | 14.2 µM | > 64 µM | > 64 µM | > 4.51 | – | – | –
17 | CNc1ncnc2c1ccn2[C@H]1O[C@@H](CO)[C@H](O)[C@@H]1O | > 64 µM | 32.3 µM | > 64 µM | > 64 µM | > 1.98 | – | – | –
18 | OC[C@H]1O[C@@H](n2ccc3c(NC4CCCC4)ncnc32)[C@H](O)[C@@H]1O | > 64 µM | 14.5 µM | 35 µM | > 64 µM | > 4.41 | > 1.83 | – | –
19 | OC[C@H]1O[C@@H](n2ccc3c(N4CCC4)ncnc32)[C@H](O)[C@@H]1O | > 64 µM | 6.67 µM | > 64 µM | 64 µM | > 9.6 | – | – | –
20 | OC[C@H]1O[C@@H](n2ccc3c(N4CCOCC4)ncnc32)[C@H](O)[C@@H]1O | > 64 µM | > 64 µM | > 64 µM | > 64 µM | – | – | – | –
21 | OC[C@H]1O[C@@H](n2ccc3c(NC4CC4)ncnc32)[C@H](O)[C@@H]1O | > 64 µM | 2.28 µM | 0.36 µM | 1.25 µM | > 28.1 | 3.47 | – | –
22 | CCCCCCCCCCCCCCCCOP(=O)([O-])OCC[N+](C)(C)C [MILTEFOSINE] | – | – | 8.3 µM | – | – | – | – | –
23 | Nc1ncnc2c1ccn2[C@@H]1O[C@H](CO)C[C@H]1O | > 64 µM | > 64 µM | > 64 µM | > 64 µM | – | – | – | –
24 | CN(C)c1ncnc2c1ccn2[C@@H]1O[C@H](CO)[C@@H](O)[C@H]1O | 7.06 µM | 1.65 µM | > 64 µM | 64 µM | 4.28 | – | – | –
25 | Nc1cnc2c(ccn2[C@@H]2O[C@H](CO)[C@@H](O)[C@H]2O)c1 | > 64 µM | > 64 µM | > 64 µM | > 64 µM | 7.9 | – | – | –
26 | Nc1nc(N)c2ccn([C@@H]3O[C@H](CO)[C@@H](O)[C@H]3O)c2n1 | > 64 µM | 1.36 µM | 21.4 µM | > 64 µM | 6.6 | > 2.99 | – | –
